The record followed here is paper PMC3774368, “Functional Properties of Five Dictyostelium discoideum P2X Receptors” (The Journal of Biological Chemistry, 2013).

Type in all cases: cell-based
Experiment [1] deals with T1, P2XA (Dictyostelium discoideum, UniProt Q86JM7).
T1 construct: humanized cDNA, full length, C-terminal EYMPME (EE) tag, pcDNA3.1, transient expression in HEK293 cells
T1 sequence (Q86JM7 1-378): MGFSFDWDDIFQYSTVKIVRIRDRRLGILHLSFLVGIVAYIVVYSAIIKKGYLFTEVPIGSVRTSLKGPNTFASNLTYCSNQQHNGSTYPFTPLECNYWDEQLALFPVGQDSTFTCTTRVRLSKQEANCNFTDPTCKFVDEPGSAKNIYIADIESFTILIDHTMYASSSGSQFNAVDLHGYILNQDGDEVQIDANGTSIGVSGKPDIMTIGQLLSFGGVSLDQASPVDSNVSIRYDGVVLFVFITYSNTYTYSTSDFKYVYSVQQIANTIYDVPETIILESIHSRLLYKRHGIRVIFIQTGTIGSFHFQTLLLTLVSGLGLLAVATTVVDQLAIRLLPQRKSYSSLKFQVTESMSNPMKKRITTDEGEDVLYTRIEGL
The experiment in a line: whole-cell patch clamp, ADP-evoked current, HEK293 cells. The following applies: weak agonist; external and internal Na+; authors note possible ATP impurity in commercial nucleotides. (In general: The patch-clamp technique gives a direct electrical read-out from membranes.)

The target in the next experiment is T2, P2XE (Dictyostelium discoideum, UniProt Q54JH4).
T2 construct: humanized cDNA (Genscript), full length, C-terminal EYMPME (EE) tag, pcDNA3.1, transient expression in HEK293 cells
T2 sequence (Q54JH4 1-388): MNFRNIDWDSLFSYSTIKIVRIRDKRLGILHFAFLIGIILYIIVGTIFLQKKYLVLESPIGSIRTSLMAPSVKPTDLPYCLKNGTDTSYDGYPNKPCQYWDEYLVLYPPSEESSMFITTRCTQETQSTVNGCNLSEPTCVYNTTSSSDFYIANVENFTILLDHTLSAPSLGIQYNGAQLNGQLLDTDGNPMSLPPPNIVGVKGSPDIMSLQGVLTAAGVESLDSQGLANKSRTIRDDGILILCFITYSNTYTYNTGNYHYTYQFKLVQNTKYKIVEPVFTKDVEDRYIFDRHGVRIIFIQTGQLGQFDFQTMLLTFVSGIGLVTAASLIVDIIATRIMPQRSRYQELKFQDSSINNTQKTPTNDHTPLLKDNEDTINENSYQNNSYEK
Nature of the experiment: whole-cell patch clamp, ATP-evoked current, HEK293 cells.

A further experiment addresses T3, P2XB (Dictyostelium discoideum, UniProt Q553Y1).
T3 construct: humanized cDNA (Genscript), full length, C-terminal EYMPME (EE) tag, pcDNA3.1, transient expression in HEK293 cells
T3 sequence (Q553Y1 1-369): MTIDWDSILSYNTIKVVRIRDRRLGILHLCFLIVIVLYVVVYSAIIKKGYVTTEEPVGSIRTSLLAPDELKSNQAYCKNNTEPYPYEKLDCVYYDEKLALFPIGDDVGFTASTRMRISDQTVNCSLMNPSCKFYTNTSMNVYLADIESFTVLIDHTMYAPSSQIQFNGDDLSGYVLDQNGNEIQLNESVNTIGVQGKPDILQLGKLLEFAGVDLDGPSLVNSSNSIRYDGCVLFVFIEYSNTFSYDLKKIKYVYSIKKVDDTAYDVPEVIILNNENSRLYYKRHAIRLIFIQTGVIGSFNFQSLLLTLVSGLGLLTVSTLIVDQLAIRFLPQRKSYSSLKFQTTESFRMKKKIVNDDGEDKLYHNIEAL
The experiment is described as above.

Another experiment addresses T4, P2XD (Dictyostelium discoideum, UniProt Q54J33).
T4 construct: humanized cDNA (Genscript), full length, C-terminal EYMPME (EE) tag, pcDNA3.1, transient expression in HEK293 cells
T4 sequence (Q54J33 1-407): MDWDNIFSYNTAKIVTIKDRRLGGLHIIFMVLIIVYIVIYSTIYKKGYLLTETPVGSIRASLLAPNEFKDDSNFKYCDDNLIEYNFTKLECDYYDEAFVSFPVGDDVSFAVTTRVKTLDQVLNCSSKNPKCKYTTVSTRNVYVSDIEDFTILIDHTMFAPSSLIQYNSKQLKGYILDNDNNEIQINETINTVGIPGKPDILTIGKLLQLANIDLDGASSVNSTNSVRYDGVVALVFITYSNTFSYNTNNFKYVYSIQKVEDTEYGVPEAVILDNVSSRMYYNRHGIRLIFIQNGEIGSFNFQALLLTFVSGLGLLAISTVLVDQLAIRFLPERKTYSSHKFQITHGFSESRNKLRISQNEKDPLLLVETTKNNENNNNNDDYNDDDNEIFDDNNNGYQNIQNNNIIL
The experiment is described as above.

Experiment [2] addresses T1, P2XA. The experiment is described as above.

pEC50: −log10 of the molar value.

For the molecule `Nc1ncnc2c1ncn2[C@@H]1O[C@H](COP(=O)(O)OP(=O)(O)O)[C@@H](O)[C@H]1O` [ADP], the “% of ATP current at 3 mM” value on P2XA [1] was ~ 10%.
As to `Nc1ncnc2c1ncn2[C@@H]1O[C@H](COP(=O)(O)OP(=O)(O)OP(=O)(O)O)[C@@H](O)[C@H]1O` [ATP], the pEC50 is around 3.52 on P2XE, around 2.52 on P2XB, around 2.52 at P2XD and 3.80 at P2XA [2].

As usually defined, the pEC50 is −log10 of the EC50, conventionally taken in molar units. A higher pEC50 goes with a small EC50.
